{"source": "ChEMBL document CHEMBL3621077", "about": "“Synthesis of hybrid anticancer agents based on kinase and histone deacetylase inhibitors” (Medchemcomm, 2014)", "key": {"HT-29": {"system": "HT-29", "test": "Cytotoxicity against human HT-29 cells", "assay_type": "functional"}, "Histone deacetylase 1": {"biological_target": "Histone deacetylase 1 (Homo sapiens, UniProt Q13547)", "sequence (Q13547 whole entry)": "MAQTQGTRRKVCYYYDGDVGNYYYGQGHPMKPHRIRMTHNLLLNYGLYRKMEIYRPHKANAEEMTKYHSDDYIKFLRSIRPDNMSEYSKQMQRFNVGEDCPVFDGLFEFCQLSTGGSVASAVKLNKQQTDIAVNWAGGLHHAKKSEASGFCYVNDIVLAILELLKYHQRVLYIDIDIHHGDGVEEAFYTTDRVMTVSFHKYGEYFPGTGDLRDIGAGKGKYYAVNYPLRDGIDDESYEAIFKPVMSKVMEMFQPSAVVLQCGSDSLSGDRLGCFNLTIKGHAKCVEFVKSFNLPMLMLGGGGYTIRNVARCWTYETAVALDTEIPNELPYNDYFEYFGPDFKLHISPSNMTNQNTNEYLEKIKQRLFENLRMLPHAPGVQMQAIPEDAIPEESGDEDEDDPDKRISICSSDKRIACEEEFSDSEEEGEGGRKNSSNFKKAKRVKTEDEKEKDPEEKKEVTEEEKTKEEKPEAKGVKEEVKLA", "test": "Inhibition of HDAC1 (unknown origin)"}, "Xenopus laevis [1]": {"species_on_record": "Xenopus laevis", "test": "Inhibition of angiogenesis in Xenopus laevis embryo heart assessed as decrease in Egfl7 mRNA level at 10 to 100 uM at stage 9 incubated for 72 hrs until stage 38 measured by WISH method", "assay_type": "functional, organism-based"}, "Histone deacetylase 8": {"biological_target": "T1, Histone deacetylase 8 (Homo sapiens, UniProt Q9BY41)", "T1 sequence (Q9BY41 whole entry)": "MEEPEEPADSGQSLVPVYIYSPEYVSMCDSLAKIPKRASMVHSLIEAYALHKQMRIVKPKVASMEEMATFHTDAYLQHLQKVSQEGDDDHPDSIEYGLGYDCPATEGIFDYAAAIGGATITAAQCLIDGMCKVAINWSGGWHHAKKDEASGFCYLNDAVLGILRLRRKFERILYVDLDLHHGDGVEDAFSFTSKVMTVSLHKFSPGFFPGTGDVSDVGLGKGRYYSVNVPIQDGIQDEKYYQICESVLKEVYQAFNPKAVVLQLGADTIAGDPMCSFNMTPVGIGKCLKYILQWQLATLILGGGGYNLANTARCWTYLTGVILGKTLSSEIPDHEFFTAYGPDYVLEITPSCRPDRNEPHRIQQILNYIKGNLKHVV", "test": "Inhibition of HDAC8 (unknown origin)", "settings": "read-out: IC50"}, "SNB-19": {"system": "SNB-19", "test": "Cytotoxicity against human SNB19 cells", "assay_type": "functional"}, "Histone deacetylase 9": {"biological_target": "Histone deacetylase 9 (Homo sapiens, UniProt Q9UKV0)", "sequence (Q9UKV0 whole entry)": "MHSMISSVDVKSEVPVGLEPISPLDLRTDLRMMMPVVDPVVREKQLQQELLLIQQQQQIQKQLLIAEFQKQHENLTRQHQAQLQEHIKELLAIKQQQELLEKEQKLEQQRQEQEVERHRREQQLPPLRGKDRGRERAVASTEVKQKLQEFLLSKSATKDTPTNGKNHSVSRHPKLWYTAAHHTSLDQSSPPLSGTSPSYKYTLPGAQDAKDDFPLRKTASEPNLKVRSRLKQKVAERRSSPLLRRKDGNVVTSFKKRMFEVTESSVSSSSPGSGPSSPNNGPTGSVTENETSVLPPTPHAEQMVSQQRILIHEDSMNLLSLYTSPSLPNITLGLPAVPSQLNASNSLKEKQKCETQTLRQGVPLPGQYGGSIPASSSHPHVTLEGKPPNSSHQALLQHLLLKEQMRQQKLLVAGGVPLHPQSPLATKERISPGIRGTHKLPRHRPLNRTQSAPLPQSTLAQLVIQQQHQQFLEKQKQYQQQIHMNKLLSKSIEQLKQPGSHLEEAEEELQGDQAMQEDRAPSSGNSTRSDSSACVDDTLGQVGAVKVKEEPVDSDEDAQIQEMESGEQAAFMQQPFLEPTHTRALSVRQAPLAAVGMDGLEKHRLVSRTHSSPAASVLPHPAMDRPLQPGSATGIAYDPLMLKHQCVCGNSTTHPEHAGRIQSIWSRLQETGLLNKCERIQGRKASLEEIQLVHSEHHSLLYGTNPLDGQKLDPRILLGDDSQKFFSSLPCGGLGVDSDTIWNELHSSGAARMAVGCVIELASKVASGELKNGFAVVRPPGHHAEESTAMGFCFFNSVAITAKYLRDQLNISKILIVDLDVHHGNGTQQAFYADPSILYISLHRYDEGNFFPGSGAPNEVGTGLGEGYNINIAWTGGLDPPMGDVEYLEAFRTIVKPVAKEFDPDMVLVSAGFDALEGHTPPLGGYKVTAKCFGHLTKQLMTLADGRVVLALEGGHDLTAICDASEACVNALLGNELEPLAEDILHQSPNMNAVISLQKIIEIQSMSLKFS", "test": "Inhibition of HDAC9 (unknown origin)"}, "SF-268": {"system": "SF-268", "test": "Cytotoxicity against human SF268 cells", "assay_type": "functional"}, "HCT-116": {"system": "HCT-116", "test": "Cytotoxicity against human HCT116 cells", "assay_type": "functional"}, "KM12": {"system": "KM12", "test": "Cytotoxicity against human KM12 cells", "assay_type": "functional"}, "[2]": {"biological_target": "Vascular endothelial growth factor receptor 2 (Homo sapiens, UniProt P35968)", "sequence (P35968 whole entry)": "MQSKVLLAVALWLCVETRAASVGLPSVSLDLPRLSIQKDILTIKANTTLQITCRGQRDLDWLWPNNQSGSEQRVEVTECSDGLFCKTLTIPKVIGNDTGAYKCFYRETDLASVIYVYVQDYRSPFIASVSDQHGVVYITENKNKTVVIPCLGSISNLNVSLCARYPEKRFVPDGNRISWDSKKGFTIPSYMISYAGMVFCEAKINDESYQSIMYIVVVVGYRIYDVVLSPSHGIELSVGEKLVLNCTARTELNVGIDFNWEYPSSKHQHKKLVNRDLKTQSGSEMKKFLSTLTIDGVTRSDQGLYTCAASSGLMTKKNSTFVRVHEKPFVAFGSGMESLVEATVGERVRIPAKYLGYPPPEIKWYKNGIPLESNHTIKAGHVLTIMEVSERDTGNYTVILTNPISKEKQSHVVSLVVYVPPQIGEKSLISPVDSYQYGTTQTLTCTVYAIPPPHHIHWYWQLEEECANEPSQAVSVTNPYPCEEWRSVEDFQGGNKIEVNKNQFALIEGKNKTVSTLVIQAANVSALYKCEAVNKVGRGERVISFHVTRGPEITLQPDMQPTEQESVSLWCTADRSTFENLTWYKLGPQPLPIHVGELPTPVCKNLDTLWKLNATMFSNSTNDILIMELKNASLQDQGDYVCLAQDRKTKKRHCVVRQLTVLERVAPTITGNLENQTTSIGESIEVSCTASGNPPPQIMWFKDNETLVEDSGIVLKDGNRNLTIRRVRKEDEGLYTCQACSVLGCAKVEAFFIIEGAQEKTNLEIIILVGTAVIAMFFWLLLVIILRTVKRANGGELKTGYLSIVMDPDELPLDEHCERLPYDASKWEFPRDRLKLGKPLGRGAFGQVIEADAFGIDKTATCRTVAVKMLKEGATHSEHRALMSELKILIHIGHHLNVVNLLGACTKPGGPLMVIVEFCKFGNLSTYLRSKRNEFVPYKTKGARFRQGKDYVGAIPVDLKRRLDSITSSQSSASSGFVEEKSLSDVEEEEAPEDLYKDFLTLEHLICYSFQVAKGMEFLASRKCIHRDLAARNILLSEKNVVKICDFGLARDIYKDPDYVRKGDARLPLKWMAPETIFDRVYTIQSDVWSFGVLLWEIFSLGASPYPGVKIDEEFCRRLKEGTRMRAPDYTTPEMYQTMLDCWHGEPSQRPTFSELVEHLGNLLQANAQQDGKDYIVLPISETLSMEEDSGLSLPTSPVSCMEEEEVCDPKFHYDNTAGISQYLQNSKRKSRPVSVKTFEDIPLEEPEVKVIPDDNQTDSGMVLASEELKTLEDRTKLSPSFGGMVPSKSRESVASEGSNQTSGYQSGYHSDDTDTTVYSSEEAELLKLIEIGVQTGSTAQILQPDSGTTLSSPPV", "test": "Inhibition of VEGFR2 (unknown origin)", "settings": "read-out: IC50"}, "[3]": {"test": "Cytotoxicity against human Hs 578T cells", "assay_type": "functional"}, "Xenopus laevis [4]": {"species_on_record": "Xenopus laevis", "test": "Inhibition of angiogenesis in Xenopus laevis embryo heart assessed as effect on Egfl7 expression in intersomitic vessels at 100 uM at stage 9 incubated for 72 hrs until stage 38 measured by WISH method", "assay_type": "functional, organism-based", "settings": "Intersomitic vessel"}, "[5]": {"biological_target": "Vascular endothelial growth factor receptor 1 (Homo sapiens, UniProt P17948)", "test": "Inhibition of VEGFR1 (unknown origin)", "settings": "read-out: IC50"}, "HL-60(TB)": {"system": "HL-60(TB)", "test": "Cytotoxicity against human HL-60(TB) cells", "assay_type": "functional"}, "Histone deacetylase 7": {"biological_target": "T2, Histone deacetylase 7 (Homo sapiens, UniProt Q8WUI4)", "T2 sequence (Q8WUI4 whole entry)": "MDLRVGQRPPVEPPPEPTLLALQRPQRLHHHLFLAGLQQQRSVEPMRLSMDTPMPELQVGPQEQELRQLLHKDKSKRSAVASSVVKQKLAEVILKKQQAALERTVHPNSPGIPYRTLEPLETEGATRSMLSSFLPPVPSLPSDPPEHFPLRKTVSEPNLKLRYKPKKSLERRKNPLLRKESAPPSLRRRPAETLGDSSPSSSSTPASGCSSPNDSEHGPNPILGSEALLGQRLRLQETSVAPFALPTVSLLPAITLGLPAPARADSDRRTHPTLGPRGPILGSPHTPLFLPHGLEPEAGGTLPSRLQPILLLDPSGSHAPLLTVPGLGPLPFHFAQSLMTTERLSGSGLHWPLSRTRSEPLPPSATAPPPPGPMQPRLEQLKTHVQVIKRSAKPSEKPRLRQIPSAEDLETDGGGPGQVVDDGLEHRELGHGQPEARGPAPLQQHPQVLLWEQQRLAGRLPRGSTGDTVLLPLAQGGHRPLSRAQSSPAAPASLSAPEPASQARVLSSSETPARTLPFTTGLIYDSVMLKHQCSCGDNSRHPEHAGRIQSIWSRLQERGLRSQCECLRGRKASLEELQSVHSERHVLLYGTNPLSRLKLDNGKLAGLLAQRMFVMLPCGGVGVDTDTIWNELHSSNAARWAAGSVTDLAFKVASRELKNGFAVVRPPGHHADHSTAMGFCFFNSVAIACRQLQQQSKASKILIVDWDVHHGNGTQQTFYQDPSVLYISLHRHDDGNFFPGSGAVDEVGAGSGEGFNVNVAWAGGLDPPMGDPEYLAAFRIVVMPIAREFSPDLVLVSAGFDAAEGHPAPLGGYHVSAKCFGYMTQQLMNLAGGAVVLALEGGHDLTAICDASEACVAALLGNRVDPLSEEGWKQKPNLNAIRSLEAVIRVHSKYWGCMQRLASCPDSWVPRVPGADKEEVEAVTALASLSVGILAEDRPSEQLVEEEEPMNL", "test": "Inhibition of HDAC7 (unknown origin)"}, "Histone deacetylase": {"biological_target": "Histone deacetylase", "assay_type": "cell-based, Homo sapiens", "settings": "hela"}, "A549": {"system": "A549", "test": "Cytotoxicity against human A549 cells", "assay_type": "functional"}, "T47D": {"system": "T47D", "test": "Cytotoxicity against human T47D cells", "assay_type": "functional"}, "MDA-MB-231": {"system": "MDA-MB-231", "test": "Cytotoxicity against human MDA-MB-231 cells assessed as reduction of cell viability after 72 hrs by MTT assay", "assay_type": "functional, cell-based", "settings": "MDA-MB-231, 72 h"}, "SK-OV-3": {"system": "SK-OV-3", "test": "Cytotoxicity against human SKOV3 cells", "assay_type": "functional"}, "SR": {"system": "SR", "test": "Cytotoxicity against human SR cells", "assay_type": "functional"}, "LOX IMVI": {"system": "LOX IMVI", "test": "Cytotoxicity against human LOXIMVI cells", "assay_type": "functional"}, "[6]": {"biological_target": "Platelet-derived growth factor receptor beta (Homo sapiens, UniProt P09619)", "sequence (P09619 whole entry)": "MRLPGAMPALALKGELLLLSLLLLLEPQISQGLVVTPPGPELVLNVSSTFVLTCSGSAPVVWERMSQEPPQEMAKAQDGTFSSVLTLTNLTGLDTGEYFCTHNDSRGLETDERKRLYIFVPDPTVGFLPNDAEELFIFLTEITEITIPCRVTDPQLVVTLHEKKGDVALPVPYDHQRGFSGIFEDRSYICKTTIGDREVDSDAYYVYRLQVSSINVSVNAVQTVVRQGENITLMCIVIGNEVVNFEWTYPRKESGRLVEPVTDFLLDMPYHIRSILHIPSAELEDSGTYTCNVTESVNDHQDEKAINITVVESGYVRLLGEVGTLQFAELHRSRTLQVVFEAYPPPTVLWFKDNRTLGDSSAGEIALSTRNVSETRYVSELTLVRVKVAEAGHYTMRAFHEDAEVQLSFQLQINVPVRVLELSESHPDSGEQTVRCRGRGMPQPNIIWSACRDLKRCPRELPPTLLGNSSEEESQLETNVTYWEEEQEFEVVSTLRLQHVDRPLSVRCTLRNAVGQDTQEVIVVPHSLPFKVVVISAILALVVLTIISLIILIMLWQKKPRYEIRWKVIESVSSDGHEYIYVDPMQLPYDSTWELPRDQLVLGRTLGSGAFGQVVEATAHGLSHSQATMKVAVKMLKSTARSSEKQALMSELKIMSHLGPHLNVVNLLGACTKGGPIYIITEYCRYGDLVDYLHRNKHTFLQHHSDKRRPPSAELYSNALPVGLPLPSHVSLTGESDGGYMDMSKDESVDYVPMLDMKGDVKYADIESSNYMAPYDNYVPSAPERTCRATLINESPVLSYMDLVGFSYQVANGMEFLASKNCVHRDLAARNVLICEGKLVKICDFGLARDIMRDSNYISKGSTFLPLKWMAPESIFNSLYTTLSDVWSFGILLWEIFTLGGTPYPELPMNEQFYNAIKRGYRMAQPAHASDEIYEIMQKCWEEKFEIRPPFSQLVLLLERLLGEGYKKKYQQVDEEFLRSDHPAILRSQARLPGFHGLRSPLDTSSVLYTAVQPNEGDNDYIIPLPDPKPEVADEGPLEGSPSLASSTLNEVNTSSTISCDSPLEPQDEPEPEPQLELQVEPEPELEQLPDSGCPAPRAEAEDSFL", "test": "Inhibition of PDGFRb (unknown origin)", "settings": "read-out: IC50"}, "NCI-H460": {"system": "NCI-H460", "test": "Cytotoxicity against human NCI-H460 cells", "assay_type": "functional"}, "MCF7": {"system": "MCF7", "test": "Cytotoxicity against human MCF7 cells", "assay_type": "functional"}, "MOLT-4": {"system": "MOLT-4", "test": "Cytotoxicity against human MOLT4 cells", "assay_type": "functional"}, "UO-31": {"system": "UO-31", "test": "Cytotoxicity against human UO31 cells", "assay_type": "functional"}, "OVCAR-8": {"system": "OVCAR-8", "test": "Cytotoxicity against human OVCAR8 cells", "assay_type": "functional"}, "RXF 393": {"system": "RXF 393", "test": "Cytotoxicity against human RXF393 cells", "assay_type": "functional"}, "SW-620": {"system": "SW-620", "test": "Cytotoxicity against human SW620 cells", "assay_type": "functional"}, "M14": {"system": "M14", "test": "Cytotoxicity against human M14 cells", "assay_type": "functional"}, "Xenopus laevis [7]": {"species_on_record": "Xenopus laevis", "test": "Inhibition of angiogenesis in Xenopus laevis embryo heart assessed as reduction in tube formation at 100 uM at stage 9 incubated for 72 hrs until stage 38 measured by WISH method", "assay_type": "functional, organism-based"}}, "note": "Activity calls are given as the source filed them. No cut-off for these calls is given here.", "data": [{"smiles": "O=C(CCCCCCC(=O)Nc1ccc2c(c1)/C(=C/c1ccc[nH]1)C(=O)N2)NO", "values": [{"measurement": "GI50", "setting": "HT-29", "value": 612, "unit": "nM"}, {"measurement": "IC50", "setting": "Histone deacetylase 1", "value": 0.00687, "unit": "nM"}, {"measurement": "inhibition", "setting": "Xenopus laevis [1]", "value": "Active"}, {"measurement": "IC50", "setting": "Histone deacetylase 8", "value": 60.2, "unit": "nM"}, {"measurement": "GI50", "setting": "SNB-19", "value": 644, "unit": "nM"}, {"measurement": "IC50", "setting": "Histone deacetylase 9", "value": "Not Active"}, {"measurement": "GI50", "setting": "SF-268", "value": 1190, "unit": "nM"}, {"measurement": "GI50", "setting": "HCT-116", "value": 238, "unit": "nM"}, {"measurement": "GI50", "setting": "KM12", "value": 960, "unit": "nM"}, {"measurement": "IC50", "setting": "[2]", "value": 237, "unit": "nM"}, {"measurement": "GI50", "setting": "[3]", "value": 1020, "unit": "nM"}, {"measurement": "inhibition", "setting": "Xenopus laevis [4]", "value": "inactive"}, {"measurement": "IC50", "setting": "[5]", "value": 365, "unit": "nM"}, {"measurement": "GI50", "setting": "HL-60(TB)", "value": 477, "unit": "nM"}, {"measurement": "IC50", "setting": "Histone deacetylase 7", "value": "Not Active"}, {"measurement": "IC50", "setting": "Histone deacetylase", "value": 117, "unit": "nM"}, {"measurement": "GI50", "setting": "A549", "value": 2900, "unit": "nM"}, {"measurement": "GI50", "setting": "T47D", "value": 45, "unit": "nM"}, {"measurement": "IC50", "setting": "MDA-MB-231", "value": 29000, "unit": "nM"}, {"measurement": "GI50", "setting": "SK-OV-3", "value": 363, "unit": "nM"}, {"measurement": "GI50", "setting": "SR", "value": 296, "unit": "nM"}, {"measurement": "GI50", "setting": "LOX IMVI", "value": 565, "unit": "nM"}, {"measurement": "IC50", "setting": "[6]", "value": 185, "unit": "nM"}, {"measurement": "GI50", "setting": "NCI-H460", "value": 2740, "unit": "nM"}, {"measurement": "GI50", "setting": "MCF7", "value": 440, "unit": "nM"}, {"measurement": "GI50", "setting": "MOLT-4", "value": 302, "unit": "nM"}, {"measurement": "GI50", "setting": "UO-31", "value": 775, "unit": "nM"}, {"measurement": "GI50", "setting": "OVCAR-8", "value": 499, "unit": "nM"}, {"measurement": "GI50", "setting": "RXF 393", "value": 518, "unit": "nM"}, {"measurement": "GI50", "setting": "SW-620", "value": 275, "unit": "nM"}, {"measurement": "GI50", "setting": "M14", "value": 489, "unit": "nM"}, {"measurement": "Activity", "setting": "Xenopus laevis [7]", "value": "inactive"}]}]}
